Source: publication PMC10178421 (2023)

Tests used:
[1] = test system: CPG-tel26 (DNA, G4) TTAGGGTTAGGGTTAGGGTTAGGGTT; assay: G4-CPG affinity chromatography; conditions: 50 mM KCl; 10% DMSO, 10% ethanol; 60 μM compound; error ±2%
[2] = test system: CPG-ds27 (DNA, hairpin) CGCGAATTCGCGTTTCGCGAATTCGCG; assay: G4-CPG affinity chromatography; conditions: 50 mM KCl; 10% DMSO, 10% ethanol; 60 μM compound; error ±2%
[3] = test system: CPG-c-myc (DNA, G4) TGGGGAGGGTGGGGAGGGTGGGGAAGGTGGGGA; assay: G4-CPG affinity chromatography; conditions: 50 mM KCl; 10% DMSO, 10% ethanol; 60 μM compound; error ±2%
[4] = test system: Pu22 (DNA, G4) TGAGGGTGGGTAGGGTGGGTAA; assay: CD melting (265 nm); conditions: no added metal cations; 10 mM Tris-HCl, pH 7; 2 μM DNA, 20 μM ligand (10 equiv)
[5] = test system: tel26 (DNA, G4) TTAGGGTTAGGGTTAGGGTTAGGGTT; assay: fluorescence titration (ligand quenching); conditions: 20 mM KCl, 5 mM potassium phosphate; pH 7, 20 °C; 2 μM ligand; independent equivalent-sites fit; average over multiple binding events
[6] = test system: ds12 (DNA, duplex) CGCGAATTCGCG; assay: fluorescence titration (ligand quenching); conditions: 20 mM KCl, 5 mM potassium phosphate; pH 7, 20 °C; 2 μM ligand; independent equivalent-sites fit; average over multiple binding events
[7] = test system: Pu22 (DNA, G4) TGAGGGTGGGTAGGGTGGGTAA; assay: fluorescence titration (ligand quenching); conditions: 20 mM KCl, 5 mM potassium phosphate; pH 7, 20 °C; 2 μM ligand; independent equivalent-sites fit; average over multiple binding events

Compound | Bound Ligand (%) [1] [%] | Bound Ligand (%) [2] [%] | Bound Ligand (%) [3] [%] | ΔTm [4] | Kb [5] | Kb [6] | Kb [7]
C=CC12C(=O)C(C)(O)C3CC1c1c4c(cc(C)c1C31CCc3c(ccc(O)c3C)C21O)CCc1c-4ccc(O)c1C (stereo not shown) | 48 | 38 | 56 | – | – | – | –
C=Cc1c(C)c(O[C@@H]2O[C@H](CO)[C@@H](O)[C@H](O)[C@H]2O)cc2c1-c1ccc(O)c(C)c1CC2 | 0 | 0 | 3 | – | – | – | –
C=CC12C(=O)C(C)(O)C(CC1c1cc(C)cc3c1-c1ccc(O)c(C)c1CC3)C1=C2c2ccc(OC)c(C)c2CC1 (stereo not shown) | 0 | 0 | 0 | – | – | – | –
Cc1c(O)cc2c3c1CCc1cc(O[C@H]4O[C@H](CO)[C@@H](O)[C@H](O)[C@H]4O)c(C)c(c1-3)CC2 | 9 | 2 | 8 | +4 °C | – | – | –
C=CC12C3=C(CCc4c3ccc(O)c4C)C(CC1c1cc(C)cc3c1-c1ccc(O)c(C)c1CC3)C(C)(O)C2O (stereo not shown) | 19 | 0 | 18 | – | (2.3 ± 0.9) × 10^6 M^-1 | (6.0 ± 1.7) × 10^5 M^-1 | (4.4 ± 0.7) × 10^5 M^-1
C=Cc1c(C)c(O[C@H]2O[C@H](CO)[C@@H](O)[C@H](O)[C@H]2O)cc2c1-c1ccc(O)c(C)c1CC2 | 0 | 0 | 0 | – | – | – | –
C=Cc1c(C)c(O)cc2c1-c1ccc(O)c(C)c1CC2 | 2 | 0 | 4 | – | – | – | –
